These results are taken from patent US20240327372A1, “PREPARATION OF PHENE[…] […] STEREOISOMERS THEREOF AND PRECURSORS THEREOF” (priority 2022, published 2024).

Series [1] deals with serotonin transporter (SERT) (Rattus norvegicus (Rat), UniProt P31652). The series is described as follows: Competition radioligand binding, [3H]Citalopram, rat brain membranes. To be noted: 5-HT transporter. The source says:
(§1) Rat brain (Sprague Dawley, 200-250 g) synaptosomes were isolated from midbrain and hindbrain for serotonin transporter assays, striatum for dopamine transporter assays, and hippocampus plus overlying occipital cortex for norepinephrine transporter assays. Radioligands used were: [^3H]Citalopram 81.4 Ci/mmol (PerkinElmer NET1039250UC; Lot No. 2960876). [^3H]WIN35428 82.8 Ci/mmol (PerkinElmer NET1033250UC; Lot No. 2891473). [^3H]Nisoxetine 79.2 Ci/mmol (PerkinElmer NET1084250UC; Lot No. 2970324). Non-specific compounds used were: Citalopram (Tocris Bioscience 1427). JHW007 (Tocris Bioscience 4351). Nomifensine (Abcam ab146004). Test Compounds for the study were: racemic methylone HCl; (R)-methylone HCl; (S)-methylone HCl.
(§2) For membrane preparations, rat brains were dissected, tissue was added to ice-cold lysis buffer (50 mM Tris HCl; 5 mM MgCl2; 5 mM EDTA; protease inhibitor cocktail) and homogenized. The homogenate was centrifuged at 100×g for 2 minutes and the supernatant divided into polypropylene Eppendorf tubes. The supernatants were centrifuged at 17,000×g for 10 minutes at 4° C. to re-pellet the cell lysate. The pellet was resuspended in fresh wash buffer (50 mM Tris-HCl; 5 mM MgCl2; 5 mM EDTA) and centrifuged a third time at 17,000×g for 10 minutes at 4° C. The pellet was resuspended in wash buffer containing 10% sucrose as a cryoprotectant, divided into aliquots (0.3 mL) and stored at −80° C. A sample of the homogenate was analyzed for protein content using the MERCK® BCA assay. On the day of the assay, the membrane preparation was thawed and the pellet resuspended in final assay buffer.
(§3) Competition binding assays were carried out in 96-well polypropylene plates in a final volume of 250 μL per well. To each well was added 150 μL membranes, 50 μL of test compound, non-specific compound or buffer, and 50 μL radioligand solution in buffer. The plate was incubated at 30° C. for 90 minutes with gentle agitation. The incubation was stopped by vacuum filtration onto presoaked (wash buffer with PEI) GF/C filters using a 96-well FILTERMATE™ harvester, followed by 5 washes with ice-cold wash buffer. Filters were then dried under a warm air stream, sealed in polyethylene, scintillation cocktail added, and the radioactivity counted in a WALLAC® TriLux 1450 MicroBeta counter. For each concentration of drug, non-specific binding was subtracted from total binding to give specific binding. Data was fitted using the non-linear curve fitting routines in PRISM® (Graphpad Software Inc) to determine IC50. Ki was subsequently calculated using the ChengPrusoff equation.

Series [2] concerns the target dopamine transporter (DAT) (Rattus norvegicus (Rat), UniProt P23977). Description: Competition radioligand binding, [3H]WIN35428, rat brain membranes. To be noted: DA transporter.
Excerpt: as §1, §2, §3

Series [3] concerns the target norepinephrine transporter (NET). The series is described as follows: Competition radioligand binding, [3H]Nisoxetine, rat brain membranes. To be noted: NE transporter.
Excerpt: as §1, §2, §3

Series [4] concerns the target T1, SERT (Rattus norvegicus (Rat), UniProt P31652). Description: [3H]5-HT uptake inhibition in rat brain synaptosomes. Format: biochemical. Here is the method:
(§4) Materials used were: Neurotransmitters [3H]5-HT (PerkinElmer, NET498001MC) [^3H]Dopamine (PerkinElmer, NET673250UC) [^3H]Norepinephrine (PerkinElmer, NET377250UC); Test Compounds Racemic methylone HCl (Merck, M-140); (R)-methylone HCl (Pisgah Labs); (S)-methylone HCl (Pisgah Labs); Reference Compounds Citalopram (Tocris Bioscience 1427). JHW007 (Tocris Bioscience 4351). Nomifensine (Abcam ab146004).
(§5) Synaptosomes were prepared from Sprague Dawley (200-250 g) rat brain regions (hippocampus for NE, striatum for DA and midbrain for 5-HT) using standard protocols. Tissues were dissected, added to sucrose buffer (0.32 M), homogenized with a dounce-homogenizer and centrifuged at 100×g to remove cells and debris. Supernatant was collected and centrifuged 17,000×g for 10 minutes at 4° C. to pellet the synaptosomes. The pellet was resuspended in fresh assay buffer.
(§6) Uptake assays were carried out in 96-well plates in a final volume of 250 μL per well. To each well was added 150 μL synaptosomes, 50 μL test, non-specific compound or buffer alone. The plate was incubated at 30° C. for 30 minutes with gentle agitation. 50 μL radiolabeled neurotransmitter in buffer was then added to each well to initiate the uptake. The plate was incubated at 30° C. for a further 5 minutes with gentle agitation. The incubation was stopped by vacuum filtration onto presoaked GF/C filters using a 96-well FilterMate™ harvester, followed by 3 washes with ice-cold wash buffer. Filters were then dried under a warm air stream, sealed in polyethylene, scintillation cocktail added, and the radioactivity counted in a Wallac® TriLux 1450 MicroBeta counter.
(§7) For each concentration of drug, non-specific uptake was subtracted from total uptake to give specific uptake. Data was fitted using the non-linear curve fitting routines in Prism® (Graphpad Software Inc) to determine IC50.

Series [5] deals with T2, DAT (Rattus norvegicus (Rat), UniProt P23977). Description: [3H]Dopamine uptake inhibition in rat brain synaptosomes. In kind it is biochemical. To be noted: DA. The procedure:
as §4, §5, §6, §7

Series [6] has as its system NET. Description: [3H]Norepinephrine uptake inhibition in rat brain synaptosomes. Format: biochemical. The following applies: NE. The procedure: as §4, §5, §6, §7
Series [7] addresses T1, SERT. The series is described as follows: 5-HT release study. Format: biochemical.
Series [8] addresses T2, DAT. Description: DA release study. In kind it is biochemical.
Series [9] has as its system NET. The series is described as follows: NE release study. Format: biochemical.
The next series relates to cardiac ion channels. The series is described as follows: In vitro cardiovascular safety screening test (ion channel panel, overall). The following applies: whole panel. Format: cell-based, human. Here is the method: An in vitro cardiovascular safety screening test was run to investigate the effects of racemic methylone and two methylone stereoisomers ((R)-methylone and (S)-methylone) on selected ion channels critically linked to cardiovascular function and activity.
Electrophysiological assays were conducted to profile three compounds ((R)-methylone, (S)-methylone, or racemic methylone) for activities on the ion channel targets specified below using the Qube electrophysiological platform. Where presented, IC50 values were determined by a non-linear, least squares regression analysis. Reference standards were run as an integral part of each assay to ensure the validity of the results obtained.
Ion Channels tested were Eurofins Panel Part Number: CPROFullQB2DR Voltage-Gated Sodium: HEK-Nav1.5 (Peak), HEK-Nav1.5 (Late, Antagonist) Voltage-Gated Potassium: HEK-Kv4.3/KChIP2, CHO-hERG, CHO-KCNQ1/minK Voltage-Gated Calcium: HEK-Cav1.2 Inward-Rectifying Voltage-Gated Potassium: HEK-Kir2.1.

Series [10] relates to rat forced swim test (FST). Description: Rat forced swim test (FST). Format: in vivo. The following applies: 10 mg/kg, IP. Here is the method: All FST studies are performed and scored by an experimenter blind to treatment group and according to standard protocols. Briefly, rats are placed in a circular plexiglass container filled with water. Water temperature is maintained at 22-25° C. and changed for every animal. Day 1 (Training) consists of a 15 min acclimation trial, and Day 2 (Testing, 24 h later) consists of the 5 min test. A time sampling procedure is employed where animals are observed every 5 seconds for the duration of the test session (60 counts or 5 minutes) and scored for immobility (defined as the failure to struggle), swimming (defined as a circular movement around the tank), or climbing (defined as an upwards escape behavior). Data are expressed as the percent of the testing session (e.g., the number of immobility counts divided by 60). A p-value less than 0.05 indicates statistical significance after typical statistical analyses (e.g., unpaired t-test or ANOVA).
To determine that the prodrug and/or enantiomer has an antidepressant-like effect and to compare it to methylone, rats are treated with each compound 30 min prior to testing. Additional tests are run 24, 72, 168 hours post-dose or longer.
Racemic methylone (10 mg/kg, IP) has a maximal antidepressant-like effect in the rat forced swim test (FST), reducing immobility by nearly 100% compared to vehicle treated controls. To determine whether one enantiomer of methylone could mimic the robust antidepressant-like effect of racemic methylone, rats were treated with a single dose of racemic methylone, (R)-methylone, (S)-methylone (all 10 mg/kg, IP) or vehicle 30 min before testing in the FST. […] Therefore, all of the activity of methylone appears to be driven by the activity of one enantiomer ((S)-methylone).

A further series deals with mouse model of PTSD. To be noted: 7.5 mg/kg, 30 minutes prior to extinction training; Young et al. 2015; cited from earlier work.
For series [11] the following is noted: self-administration, healthy volunteers; cited from earlier work.

In general, IC50 refers to the midpoint of a concentration-inhibition curve. As a reminder, the Ki is a dissociation constant, usually derived from enzyme kinetics or from competition with a known ligand. A higher Ki goes with lower affinity. One may read the EC50 as the concentration giving half of the maximal effect. A low value points to a more potent agent. For `CNC(C)C(=O)c1ccc2c(c1)OCO2` (racemic) [Racemic methylone], the IC50 in series [1] came out at 12.3 µM; in series [2], 7.11 µM; in [3] it was 3.1 µM; against SERT [4], 811 nM; against DAT [5] it was 1430 nM; with NET [6], 355 nM. Besides, the Ki turned out to be 7.44 µM in [1] (Cheng-Prusoff), 3.53 µM in series [2] (Cheng-Prusoff) and 1460 nM in [3] (Cheng-Prusoff). Further, the EC50 on SERT [7] came to 620 nM; on DAT [8], 4.79 µM; in the series on NET [9], 330 nM. In the series on cardiac ion channels, the “Effect on the cardiac ion channels tested” value is on record as “do not directly inhibit the activity of cardiac channels”. In [10], the “Reduction of immobility compared to vehicle treated controls” value was around 100%.

On to `CNC(C)Cc1ccc2c(c1)OCO2` (stereo not shown) [MDMA, 3,4-methylenedioxymethamphetamine, reference compound], for which the “Reduced freezing compared to saline injected controls (extinction recall)” value in the series with mouse model of PTSD was 35%. Moreover, the “Systolic and diastolic blood pressure” value in series [11] was “significant increase”.
